Measurements as given in US20130039930A1, “BIOMARKER FOR SENSITIVITY TO THERAPY WITH A NOTCH INHIBITOR” (priority 2011, published 2013).

Experiments:
[1] = tested on: cleaved/activated Notch intracellular domain (NICD); experiment: NICD staining in Dll4-Fc- or DAPT-treated HDMECs (LECs and BECs); type: cell-based, human; settings: 10 μg/mL, 24 hours
Procedure: FIG. 1. Expression and function of Dll4-Fc. (A) Map of the AAV9-Dll4-Fc vector. (B) Structure of the Dll4-Fc as a dimeric fusion protein of the ECD of mouse Dll4 and Fc region of human immunoglobulin (hFc). (C) Dll4-Fc in the supernatants of AAV9-transfected 293T cells was analyzed by metabolic labeling, immunoprecipitation with Protein A Sepharose and autoradiography after collecting with protein Sepharose from the supernatant of the virus-infected cells. (D) Human dermal microvascular endothelial cells (HDMECs) on glass coverslips stained with Dll4-Fc (red) on ice. After fixation with paraformaldehyde (PFA) and permeabilzation, the cells were stained for Prox-1 (Green) and Hoechst (Blue). Human immunoglobulin G1 (hIgG) was used as a negative control (Red). Note Dll4-Fc in both the Prox-1-positive lymphatic vascular endothelial cells (LECs) and Prox-1-negative cells. (E) Effect of Dll4-Fc on Notch downstream gene expression. HDMECs were treated with 10 μg/mL Dll4-Fc or 10 μg/mL DAPT for 24 hours, and the expression of Hes-1, Hey-2 and NRARP were quantified by qPCR and normalized for the expression of β-actin. The experiment was repeated 4 times. (F) The cells used in (E) were stained for NICD lymphatic vascular endothelial cells (LECs). Prox-1-positive LECs are indicated by arrowheads. (G) Quantification of NICD fluorescence intensity. **:p<0.01. *: p<0.05. […]

[2] = tested on: metastatic colorectal cancer; settings: cited from earlier work
SK-MeI-103 tumors = experiment: SK-MeI-103 tumor xenograft growth (control or VEGFR-3(D1-3)-Fc expressing); type: in vivo, mouse; settings: SK-MeI-103, AAV9-HSA treated mice
Procedure: (§1) FIG. 7. Neutralization of VEGF-C/D attenuates the inhibition by Dll4-Fc. (A) The mice were injected by AAV9-Dll4-Fc or AAV9-HSA, followed by subcutaneous implantation of 5×10^6 VEGFR-3(D1-3)-Fc expressing or control retrovirus-transfected SK-MeI-103 cells. *: p<0.01, **: p<0.05. (B) Endomucin staining of the tumors. (C) Quantification of endomucin positive area. […] Scale bar 100 μm.
Six- to eight-week old female nu/nu BALB/c mice were purchased from Harlan Laboratories (Venray, The Netherlands). The National Board for Animal Experiments at the Provincial State Office of Southern Finland approved all the experiments, which were performed in accordance with Finnish legislation regarding the humane care and use of laboratory animals. […] Once the tumors became visible during the first few days, the size of the tumor was measured by a digital caliper every second day. The tumor volume was calculated using the formula: (length)×(width)×(depth)×0.52.
The SK-Mel-103 cells were transfected by an empty retrovirus (control) or by a retrovirus encoding VEGFR-3(D1-3)-Fc and then subcutaneously inoculated into nu/nu mice treated with the AAV9-HSA or the AAV9-Dll4-Fc as described above. […] This difference was statistically significant when measured 10, 12 and 14 days after tumor inoculation. […]

[3] = tested on: VEGF-C-induced BaF3/VEGFR-3 cell proliferation; experiment: BaF3/VEGFR-3 assay; type: cell-based, mouse; settings: supernatant from SK-VEGFR-3(D1-3)-Fc cells
Procedure: The BaF3/VEGFR-3 cells are derived from the interleukin-3 (IL-3) dependent mouse pro-B cell line, BaF3 (Bernardi et al., 1987). The cells express a chimeric receptor consisting of the ECD of human VEGFR-3 fused in-frame to the transmembrane and intracellular domain of mouse erythropoietin receptor (Achen et al., 2000). In IL-3 deficient cell media, the cells can be rescued by the addition of VEGF-C. The serial dilutions of supernatants (50 μl each), as well as positive and negative controls were applied in the wells of 96-well plates in quadruplicate. Subsequently, 20,000 BaF3/VEGFR-3 cells in 50 μl were added and the cells incubated at 37° C. for 48 hours. MTT substrate was added and the cells incubated at 37° C. for 2 hours. Lysis buffer (10% SDS, 10 mM HCl) was added and the plates incubated at 37° C. overnight for colour development. Quantification was done by absorbance at 540 nm.

[4] = tested on: SK-MeI-103 tumor blood vessels; experiment: Endomucin and VEGFR-3 staining of SK-MeI-103 tumors; type: in vivo, mouse; settings: SK-MeI-103 tumors expressing the VEGF-C/D trap
Text: FIG. 6. Dll4-Fc suppresses growth of tumors expressing high levels of endogenous VEGF-C. (A) VEGF-C mRNA levels in the indicated tumor cell lines analyzed by qRT-PCR. (B) Effects of Dll4-Fc on the proliferation LNM35 and SK-MeI-103 cells in culture. […] (C) The effect of Dll4-Fc on the growth of LNM35 and SK-MeI-103 tumors. (D) Endomucin staining of LNM35 and SK-MeI-103 tumors. More sprouts were associated with Dll4-Fc treatment (arrows). (E) Quantification of endomucin positive areas in LNM35 and SK-MeI-103 tumors from (D). **:p<0.01. Scale bar 50 μm.
as §1
FIG. 9. Dll4-Fc induced hypersprouting and VEGFR-3 expression in tumors. (A) High magnification fluorescent imaging of blood vessels in the SW480 tumors. Endomucin staining. […] (C) Quantification of VEGFR-3 staining intensity in the blood vessels. **: p<0.01. […]
The immunofluorescent images were captured with a Zeiss digital Axiocam camera connected to a Zeiss AxioPlan 2 microscope. […] The image quantification was carried out using ImageJ software (NIH, Bethesda, Md.).

BECs on LECs islands = experiment: Sprout-like structures in 2D culture of LECs and BECs; type: cell-based, human; settings: 1:1 LECs and BECs, 48 hours, 200 ng/ml VEGF-C with or without 10 μg/ml Dll4-Fc
Procedure: 1:1 Mixtures of BECs and LECs were grown on cover slips for 48 hours without VEGF-C to allow them to make LECs islands surrounded by BECs. The cells were then incubated for a further 48 hours with 200 ng/ml VEGF-C (produced by Dr Michael Jeltsch, University of Helsinki) with or without 10 μg/ml recombinant human Dll4-Fc protein (R&D Systems). After fixation with 1% PFA, the samples were immunostained for PECAM-1, a blood vascular endothelial marker, and podoplanin, a lymphatic endothelial marker, to identify BECs and LECs. The number of sprout-like projections of BECs on LECs islands was then counted under a fluorescence microscope.

[5] = subjects progressed following 5-FU therapy
[6] = newly diagnosed, Mayo Clinic or Roswell Park regimen

C[C@H](NC(=O)Cc1cc(F)cc(F)c1)C(=O)N[C@H](C(=O)OC(C)(C)C)c1ccccc1 [DAPT, N—[N-(3,5-difluorophenacetyl)-1-alanyl]-S-phenyl-glycine t-butyl ester]
intensity of NICD [1]: decreased in both LECs and BECs

CCc1c2c(nc3ccc(OC(=O)N4CCC(N5CCCCC5)CC4)cc13)-c1cc3c(c(=O)n1C2)COC(=O)[C@]3(O)CC [irinotecan]
prolongation of survival versus best supportive care [2, 5]: 2.8 month
prolongation of survival versus infusional 5-FU [2, 5]: 2.2 month

5-FU/leucovorin
median survival [2, 6]: 12-14 months
median time to disease progression [2, 6]: 4-5 months

B1: VEGFR-3(D1-3)-Fc: fusion protein of the immunoglobulin-like domains 1-3 of the extracellular part of human VEGFR-3 and the Fc part of human immunoglobulin G1 (protein)
chain: YSMTPPTLNITEESHVIDTGDSLSISCRGQHPLEWAWPGAQEAPATGDKDSEDTGVVRDCEGTDARPYCKVLLLHEVHANDTGSYVCYYKYIKARIEGTTAASSYVFVRDFEQPFINKPDTLLVNRKDAMWVPCLVSIPGLNVTLRSQSSVLWPDGQEVVWDDRRGMLVSTPLLHDALYLQCETTWGDQDFLSNPFLVHITGNELYDIQLLPRKSLELLVGEKLVLNCTVWAEFNSGVTFDWDYPGKQAERGKWVPERRSQQTHTELSSILTIHNVSQHDLGSYVCKANNGIQRFRESTEVIVHE
modifications: left off: a dimerising Fc or GST
notes: fusion protein of the immunoglobulin-like domains 1-3 of the extracellular part of human VEGFR-3 and the Fc part of human immunoglobulin G1
growth rates of VEGFR-3(D1-3)-Fc versus empty retrovirus tumors (SK-MeI-103 tumors): No difference in growth rates
BaF3/VEGFR-3 cell proliferation induced by VEGF-C [3]: suppresses
endothelial proliferation / vessel density in tumors [4]: downregulated endothelial proliferation

B2: VEGF-C: Vascular endothelial growth factor-C protein added to endothelial cell cultures (protein)
chain: AHYNTEILKSIDNEWRKTQCMPREVCIDVGKEFGVATNTFFKPPCVSVYRCGGCCNSEGLQCMNTSTSYLSKTLFEITVPLSQGPKPVTISFANHTSCRCMSKLDVYRQVHSIIRR
frequency of sprout-like structures of BECs over LECs islands (BECs on LECs islands): tended to increase the sprout-like structure, but the difference was not statistically significant
